Source: patent US20250290928A1, “METHOD, KIT AND DEVICE FOR DETECTING EXTRACELLULAR VESICLES” (priority 2022, published 2025)
Primed or numbered codes have the meaning given here. *: point of attachment. Dabcyl′ = 4-((4-(dimethylamino)phenyl)azo)benzoic acid, CN(C)c1ccc(/N=N/c2ccc(C(=O)*)cc2)cc1; 5FAM = O=C1OC2(c3ccc(O)cc3Oc3cc(O)ccc32)c2ccc(C(=O)*)cc21

Assays:
Assay type in all cases: biochemical, Human
[1] = system: ADAM in the MDA-MB-231-derived extracellular vesicles; assay: Detection of ADAM activity of MDA-MB-231-derived extracellular vesicles with 96-well plate; conditions: Example 39, EV 3.3 μg/mL, reporter 5 μM, buffer (4)
Description: (§1) The MMP14 activity was evaluated with a 96-well plate (manufactured by Thermo Fisher Scientific Inc., model number: 137101). A fluorescence intensity was measured with a fluorescence plate reader (Synergy MX, manufactured by BioTek Instruments, Inc.) at […] every 5 min for 1 hour. For measurement wavelengths, an excitation wavelength of 485±20 nm and a fluorescence wavelength of 528±20 nm were used.
In addition, for detection of ADAM activity, 1 mM EPDAB010 or PEPDAB014 was diluted with the buffer (4) to prepare a 10 μM ADAM detection solution. In addition, for detection of Cathepsin D activity, 1 mM CathD was diluted with the buffer (4) to prepare a 10 μM Cathepsin D detection solution.
50 μL of the ADAM detection solution or the Cathepsin D detection solution was added to 50 μL of each of the samples, a reaction was performed at 30° C., and activity was evaluated.

[2] = system: ADAM in the MDA-MB-231-derived extracellular vesicles; assay: Digital detection of MDA-MB-231-derived extracellular vesicles through ADAM activity in wells; conditions: for Extracellular vesicle concentration: at a concentration of x1, 50 fL; for Expected value λ / Number of positives / Positive ratio: Example 40, EV 2 μg/mL, reporter 5 μM, 30° C.
Description: The concentration of the solution is 4 μg/mL.
50 μL of the ADAM or Cathepsin D detection solution was added to 50 μL of the sample to provide a reaction solution for wells.

[3] = system: MMP in the MDA-MB-231-derived extracellular vesicles; assay: Evaluation of MMP activity of MDA-MB-231-derived extracellular vesicles with 96-well plate (SensoLyte 520 MMP Substrate Sampler Kit); conditions: for Fluorescence change after 1 hour of reaction at 30° C.: Example 34, EV 4 μg/mL, reporter 5 μM, buffer (4); for Fluorescence change after 2 hours of reaction at 30° C.: MP, EV 3.3 μg/mL
Description: (§2) 50 μL of the MMP detection solution was added to 50 μL of each of the samples, a reaction was performed at 30° C., and MMP activity was evaluated.
(§3) 50 μL of each of the MMP detection solutions was added to 50 μL of each of the samples, a reaction was performed at 30° C., and MMP activity was evaluated.

[4] = system: MMP in the A549-derived extracellular vesicles; assay: Evaluation of MMP activity of A549-derived extracellular vesicles with 96-well plate (SensoLyte 520 MMP Substrate Sampler Kit); conditions: Example 34, EV 4 μg/mL, reporter 5 μM, buffer (4)
Description: as §1, §2

[5] = system: MMP in the MDA-MB-231-derived extracellular vesicles; assay: Digital detection of MDA-MB-231-derived extracellular vesicles through MMP activity in wells (SB substrates); conditions: for Expected value λ / Number of positives / Positive ratio: 6 h; for Extracellular vesicle concentration / Expected value λ (×1): Example 35, 6 h; for Extracellular vesicle concentration: at a concentration of x1, 50 fL; for Expected value λ (×1): from power approximation equation
Description: The concentration of the solution is 10 μg/mL. […] The solution was further diluted 2-fold to prepare a standard sample at a concentration of x1/4, further diluted 3-fold to prepare a standard sample at a concentration of x1/12, and further diluted 3-fold to prepare a standard sample at a concentration of x1/36. Thus, the standard samples with four concentrations were prepared.
In addition, 1 mM Alexa Fluor 647 was used as a standard fluorescent substance, and each of the MMP14 detection solutions contained the standard fluorescent substance at a final concentration of 2 μM.
as §3

[6] = system: MMP in the A549-derived extracellular vesicles; assay: Digital detection of A549-derived extracellular vesicles through MMP activity in wells (SB substrates); conditions: for Extracellular vesicle concentration: at a concentration of x1, 50 fL; for Expected value λ / Number of positives / Positive ratio: Example 36, EV 5 μg/mL, reporter 5 μM, 30° C.
Description: The concentration of the solution is 10 μg/mL.
50 μL of each of the MMP detection solutions was added to 50 μL of the sample to provide a reaction solution for wells.

[7] = 1.25 μM with 1.25 μM Custom #2T
[8] = Example 35, 30° C., EV 0 (free of extracellular vesicles, pseudopositive)
[9] = Example 35, 30° C., EV 1/4 a.u.
[10] = Example 35, 30° C., EV 1/12 a.u.
[11] = Example 35, 30° C., EV 1/36 a.u.
[12] = Example 35, reporter 5 μM, 30° C., EV 1/2 a.u. (5 μg/mL in reaction solution)

Substance	Fluorescence change after 1 hour of reaction at 30° C. [3]	Fluorescence change after 2 hours of reaction at 30° C. [3, 7]	Fluorescence change after 2 hours of reaction at 30° C. ([3]; 5 μM with 5 μM Custom #2T)	Fluorescence change after 1 hour of reaction at 30° C. [4]	Expected value λ [5, 8]	Number of positives [5, 8]	Positive ratio [5, 8]	Expected value λ [5, 9]	Number of positives [5, 9]	Positive ratio [5, 9]	Expected value λ [5, 10]	Number of positives [5, 10]	Positive ratio [5, 10]	Expected value λ [5, 11]	Number of positives [5, 11]	Positive ratio [5, 11]	Extracellular vesicle concentration [5] [mL⁻¹]	Expected value λ (×1) [5]	Expected value λ [5, 12]	Number of positives [5, 12]	also measured
Dabcyl-EHADLLAVVAK (5FAM)-NH2 ({Dabcyl′}-EHADLLAVVAK(5FAM)-NH2; SMILES CC(C)C[C@H](NC(=O)[C@H](CC(C)C)NC(=O)[C@H](CC(=O)O)NC(=O)[C@H](C)NC(=O)[C@H](Cc1c[nH]cn1)NC(=O)[C@H](CCC(=O)O)NC(=O)c1ccc(/N=N/c2ccc(N(C)C)cc2)cc1)C(=O)N[C@@H](C)C(=O)N[C@H](C(=O)N[C@H](C(=O)N[C@@H](C)C(=O)N[C@@H](CCCCNC(=O)c1ccc2c(c1)C(=O)OC21c2ccc(O)cc2Oc2cc(O)ccc21)C(N)=O)C(C)C)C(C)C) [PEPDAB014]	–	–	–	–	–	–	–	–	–	–	–	–	–	–	–	–	–	–	–	–	Fluorescence change after 2 hours of reaction at 30° C. [1]: 6,939 ΔRFU; Expected value λ (×1) ([2]; Example 40, 4 hr): 0.2813; Extracellular vesicle concentration ([2]; Example 40, 4 hr): 5.625e+09 mL⁻¹; Expected value λ (×1) ([2]; Example 40, 24 hr): 0.4087; Extracellular vesicle concentration ([2]; Example 40, 24 hr): 8.174e+09 mL⁻¹; Expected value λ ([2]; 4 hr): 0.05625; Number of positives ([2]; 4 hr): 1,536; Positive ratio ([2]; 4 hr): 0.0547; Expected value λ ([2]; 24 hr): 0.08174; Number of positives ([2]; 24 hr): 2,204; Positive ratio ([2]; 24 hr): 0.07849
QXL520-Arg-Pro-Leu-Ala-Leu-Trp-Arg-Lys(5-FAM)-NH2 (QXL520-RPLALWRK(5FAM)-NH2) [SB9]	62,330 ΔRFU	39,228 ΔRFU	40,247 ΔRFU	1,775 ΔRFU	3.56E−05	1	3.56E−05	0.2881	7,010	0.2503	0.01591	442	0.01579	0.01251	349	0.01243	4.7e+10	2.3593	0.9949	17,697	Positive ratio [5, 12]: 0.6302; Expected value λ (×1) ([6]; Example 36, 4 hr): 0.1169; Extracellular vesicle concentration ([6]; Example 36, 4 hr): 2.338e+09 mL⁻¹; Expected value λ (×1) ([6]; Example 36, 24 hr): 0.01093; Extracellular vesicle concentration ([6]; Example 36, 24 hr): 2.185e+08 mL⁻¹; Expected value λ ([6]; 4 hr): 0.05844; Number of positives ([6]; 4 hr): 1,594; Positive ratio ([6]; 4 hr): 0.05677; Expected value λ ([6]; 24 hr): 0.00546; Number of positives ([6]; 24 hr): 153; Positive ratio ([6]; 24 hr): 0.00545
QXL520-Pro-Leu-Ala-Leu-Trp-Ala-Arg-Lys(5-FAM)-NH2 (QXL520-PLALWARK(5FAM)-NH2) [SB2]	32,088 ΔRFU	21,733 ΔRFU	31,832 ΔRFU	1,154 ΔRFU	3.56E−05	1	3.56E−05	0.3545	8,382	0.2985	0.1011	2,699	0.09612	0.02931	811	0.02888	5.3e+10	2.6406	1.326	20,623	Positive ratio [5, 12]: 0.7344; Expected value λ (×1) ([6]; Example 36, 4 hr): 0.1343; Extracellular vesicle concentration ([6]; Example 36, 4 hr): 2.685e+09 mL⁻¹; Expected value λ (×1) ([6]; Example 36, 24 hr): 0.00799; Extracellular vesicle concentration ([6]; Example 36, 24 hr): 1.599e+08 mL⁻¹; Expected value λ ([6]; 4 hr): 0.06712; Number of positives ([6]; 4 hr): 1,823; Positive ratio ([6]; 4 hr): 0.06492; Expected value λ ([6]; 24 hr): 0.004; Number of positives ([6]; 24 hr): 112; Positive ratio ([6]; 24 hr): 0.00399
QXL520-Pro-Leu-Gly-Met-Trp-Ser-Arg-Lys(5-FAM)-NH2 (QXL520-PLGMWSRK(5FAM)-NH2) [SB6]	52,130 ΔRFU	37,893 ΔRFU	57,158 ΔRFU	2,043 ΔRFU	3.57E−05	1	3.57E−05	0.5449	11,797	0.4201	0.09454	2,533	0.09021	0.04778	1,310	0.04665	4.3e+10	2.1589	1.006	17,761	Positive ratio [5, 12]: 0.6343; Expected value λ (×1) ([6]; Example 36, 4 hr): 0.141; Extracellular vesicle concentration ([6]; Example 36, 4 hr): 2.819e+09 mL⁻¹; Expected value λ (×1) ([6]; Example 36, 24 hr): 0.09817; Extracellular vesicle concentration ([6]; Example 36, 24 hr): 1.963e+09 mL⁻¹; Expected value λ ([6]; 4 hr): 0.07048; Number of positives ([6]; 4 hr): 1,911; Positive ratio ([6]; 4 hr): 0.06806; Expected value λ ([6]; 24 hr): 0.04908; Number of positives ([6]; 24 hr): 1,345; Positive ratio ([6]; 24 hr): 0.0479
QXL520-Pro-Tyr-Ala-Tyr-Trp-Met-Arg-Lys(5-FAM)-NH2 (QXL520-PYAYWMRK(5FAM)-NH2) [SB7]	39,031 ΔRFU	28,167 ΔRFU	32,014 ΔRFU	1,228 ΔRFU	0.000107	3	0.000107	0.3689	8,663	0.3085	0.03574	986	0.03511	0.01933	536	0.01914	6.8e+10	3.4196	1.56	22,181	Positive ratio [5, 12]: 0.7899; Expected value λ (×1) ([6]; Example 36, 4 hr): 0.02833; Extracellular vesicle concentration ([6]; Example 36, 4 hr): 5.667e+08 mL⁻¹; Expected value λ (×1) ([6]; Example 36, 24 hr): 0.00264; Extracellular vesicle concentration ([6]; Example 36, 24 hr): 5.274e+07 mL⁻¹; Expected value λ ([6]; 4 hr): 0.01417; Number of positives ([6]; 4 hr): 395; Positive ratio ([6]; 4 hr): 0.01407; Expected value λ ([6]; 24 hr): 0.00132; Number of positives ([6]; 24 hr): 37; Positive ratio ([6]; 24 hr): 0.00132
